# Test results as given in ChEMBL document CHEMBL2331254, “Pyrrolopyrimidine inhibitors of DNA gyrase B (GyrB) and topoisomerase IV (ParE), Part II: development of inhibitors with broad spectrum, Gram-negative antibacterial activity” (Bioorg Med Chem Lett, 2013).
# Experiments:
# [1] = Inhibition of Escherichia coli parE assessed as release of inorganic phosphate from ATP hydrolysis after 30 mins by coupled spectrophotometric assay
# Escherichia coli [2] = test: Antibacterial activity against Escherichia coli BW25113 harboring deltatolC by broth microdilution method; assay type: functional
# Escherichia coli [3] = test: Antibacterial activity against permeabilized Escherichia coli IBAS849 by broth microdilution method; assay type: functional
# Escherichia coli [4] = test: Antibacterial activity against wild type Escherichia coli ATCC 25922 by broth microdilution method; assay type: functional
# Staphylococcus aureus [5] = test: Antibacterial activity against Staphylococcus aureus ATCC 13709 by broth microdilution method; assay type: functional
# [6] = Inhibition of Francisella tularensis GyrB assessed as release of inorganic phosphate from ATP hydrolysis after 30 mins by coupled spectrophotometric assay
# [7] = Inhibition of Francisella tularensis parE assessed as release of inorganic phosphate from ATP hydrolysis after 30 mins by coupled spectrophotometric assay
# [8] = Inhibition of Escherichia coli GyrB assessed as release of inorganic phosphate from ATP hydrolysis after 30 mins by coupled spectrophotometric assay
# Pseudomonas aeruginosa = test: Antibacterial activity against Pseudomonas aeruginosa PAO1 by broth microdilution method; assay type: functional
# Acinetobacter baumannii = test: Antibacterial activity against Acinetobacter baumannii ATCC 19606 by broth microdilution method; assay type: functional; details: ATCC 19606 = CIP 70.34 = JCM 6841
# Klebsiella pneumoniae = test: Antibacterial activity against Klebsiella pneumoniae ATCC 700603 by broth microdilution method; assay type: functional
# Escherichia coli [9] = test: Antibacterial activity against wild type Escherichia coli ATCC 25922 by broth microdilution method in presence of 20% mouse serum; assay type: functional
# Haemophilus influenzae = test: Antibacterial activity against Haemophilus influenzae ATCC 49247 by broth microdilution method; assay type: functional
# Streptococcus pneumoniae = test: Antibacterial activity against Streptococcus pneumoniae ATCC 51916 by broth microdilution method; assay type: functional
# Staphylococcus aureus [10] = test: Antibacterial activity against Staphylococcus aureus ATCC 13709 by broth microdilution method in presence of 20% mouse serum; assay type: functional
SMILES,Ki [1] [nM],MIC (Escherichia coli [2]) [µg/mL],MIC (Escherichia coli [3]) [µg/mL],MIC (Escherichia coli [4]) [µg/mL],MIC (Staphylococcus aureus [5]) [µg/mL],Ki [6] [nM],Ki [7] [nM],Ki [8] [nM],MIC (Pseudomonas aeruginosa) [µg/mL],MIC (Acinetobacter baumannii) [µg/mL],MIC (Klebsiella pneumoniae) [µg/mL],MIC (Escherichia coli [9]) [µg/mL],MIC (Haemophilus influenzae) [µg/mL],MIC (Streptococcus pneumoniae) [µg/mL],MIC (Staphylococcus aureus [10]) [µg/mL]
CCc1[nH]c2nc(Sc3cnc4nccnc4c3)nc(N3C[C@@H]4[C@H](C3)[C@@]4(N)C(N)=O)c2c1Cl,< 1,0.25,2,> 64,0.25,,,,,,,,,,
CCc1[nH]c2nc(Sc3cccnc3)nc(Cl)c2c1Cl,,,> 64,> 64,4,488,,,,,,,,,
CCc1[nH]c2nc(Sc3cnc4nccnc4c3)nc(N3CC(N)C3)c2c1Cl,,4,8,64,1,7,5,,,,,,,,
CCc1[nH]c2nc(Sc3ccc4c(c3)C(=O)NC4)nc(N3C[C@@H]4[C@@H](N)[C@@H]4C3)c2c1Cl,8,1,4,32,0.5,,,4,,,,,,,
CCc1[nH]c2nc(Sc3cncc(S(=O)(=O)N(C)C)c3)nc(N3C[C@@H]4[C@@H](N)[C@@H]4C3)c2c1Cl,19,4,32,> 64,2,,,2,,,,,,,
CCc1[nH]c2nc(Sc3ccc4ccc(C(=O)O)nc4c3)nc(N3CCC(N)C3)c2c1Cl (configuration not stated),2,8,> 64,> 64,2,,,< 0.5,,,,,,,
CCc1[nH]c2nc(Sc3ccc4[nH]cc(C(=O)O)c(=O)c4c3)nc(N3CCC(N)C3)c2c1Cl (configuration not stated),1,> 64,> 64,> 64,> 64,,,< 0.5,,,,,,,
CCc1[nH]c2nc(Sc3ccc4c(N5CCC(N)C5)nc(C(=O)O)nc4c3)nc(N3CCC(N)C3)c2c1Cl (configuration not stated),1,8,4,8,8,,,< 0.5,,,,,,,
CCc1[nH]c2nc(Sc3ccc4c(N)nc(C)nc4c3)nc(N3CCC(N)C3)c2c1Cl (configuration not stated),2,2,8,16,2,,,< 0.5,,,,,,,
CCc1[nH]c2nc(Sc3ccc4c(N5CC(N)C5)ncnc4c3)nc(N3CCC(N)C3)c2c1Cl (configuration not stated),7,4,8,8,16,,,< 0.5,,,,,,,
CCc1[nH]c2nc(Sc3ccc4cc5c([n+]([O-])c4c3)CCNC5)nc(N3CCC(N)C3)c2c1Cl (configuration not stated),6,4,16,16,2,,,< 0.5,,,,,,,
CCc1[nH]c2nc(Oc3cnc4cccnc4c3)nc(N3C[C@@H]4[C@@H](N)[C@@H]4C3)c2c1Cl,0.9,≤ 0.06,1,4,≤ 0.06,,0.6,< 0.3,8,4,32,4,1,≤ 0.06,0.13
CCc1[nH]c2nc(Oc3cnc4ccc[n+]([O-])c4c3)nc(N3CC[C@@H](N)C3)c2c1Cl,4.6,0.5,1,4,0.13,,1.1,< 0.3,16,8,32,2,4,1,0.13
CCc1[nH]c2nc(Sc3cnc4nccnc4c3)nc(N3CCC4(CCCN4)C3)c2c1Cl (configuration not stated),35,8,16,> 64,4,6,,,,,,,,,
CCc1[nH]c2nc(Sc3cnc4nccnc4c3)nc(N3CC4CNC4C3)c2c1Cl (configuration not stated),2,1,2,16,0.5,< 1,,,,,,,,,
CCc1[nH]c2nc(Sc3cnc4nccnc4c3)nc(N3CC4CCNC4C3)c2c1Cl (configuration not stated),6,2,4,32,1,< 1,,,,,,,,,
CCc1[nH]c2nc(Sc3cnc4nccnc4c3)nc(N3CC4CNCC4C3)c2c1Cl (configuration not stated),17,8,8,> 64,2,< 1,,,,,,,,,
CCc1[nH]c2nc(Sc3cnc4nccnc4c3)nc(N3C[C@@H]4[C@@H](N)[C@@H]4C3)c2c1Cl,1,0.5,0.5,8,0.13,< 1,,< 0.5,,,,,,,
